# Assay results reported in patent US11034654B2, “2,3-dihydroisoindole-1-carboxamides useful as ROR-gamma modulators” (AstraZeneca AB, priority 2017, dated 2021).
# Columns and labels:
# [1] = target: T1, RORγ ligand binding domain (Homo sapiens, UniProt P51449); assay: RORγ radioligand competition binding assay (SPA); details: competition with tritiated 2-(4-(ethylsulfonyl)phenyl)-N-(4-(2-(methoxymethyl)phenyl)thiophen-2-yl)acetamide (25 nM), hRORγ LBD
# From the text: RORγ Radioligand Competition Binding Assay The aim of this assay is to identify compounds which bind to the RORγ ligand binding domain, by competing with tritiated 2-(4-(ethylsulfonyl)phenyl)-N-(4-(2-(methoxymethyl)phenyl)thiophen-2-yl)acetamide. Human RORγ (Ligand Binding Domain (RORγ LBD) was expressed in E. coli (BL21DE3 Star) as a fusion protein: N-6×HN-Avi-GST-TCS-hRORγ LBD (S258-K518) subcloned into pET24a(+). The LBD (258-518) is underlined in the protein sequence: The scintillation proximity assay (SPA) was run in white polystyrene flat-bottom 384-well plates (Greiner, cat. No. 781075). Assays were carried out in 40 μl reaction volumes. Various concentrations of test ligands in 0.4 microlitres of DMSO were added to assay plates using an acoustic liquid dispenser. 4 nM purified N-(HN)6-GST-TCS-hRORγ (258-518) was mixed with 40 micrograms Yttrium oxide (YOx) glutathione SPA imaging beads in assay buffer (20 mM Tris, 150 mM NaCl, 10% Glycerol, 0.25% CHAPS, 1 mM TCEP) prior to adding 30 microlitres to test ligands. Assay plates were incubated for one hour at room temperature before adding 10 microlitres tritiated 2-(4-(ethylsulfonyl)phenyl)-N-(4-(2-(methoxymethyl)phenyl)thiophen-2-yl)acetamide to test plates in assay buffer (final concentration, 25 nM). Test plates were incubated for 16 hours and read using a LEADseeker Multimodality imaging instrument. The raw data was analysed and IC50 and Ki values for the compounds were calculated using Genedata Screener software. Raw data was transformed to % effect using equation 1: Compound % effect=100*[(X−min)/(max−min)], where X represents the normalized value for the compound based on the Min (vehicle) and Max (reference compound) inhibition controls. The concentration of test ligand that inhibited radioligand binding by 50% (i.e., the IC50) was calculated by plotting the % effect versus test ligand concentration and fitting the data using the Genedata Screener Smart fit algorithm. Ki is calculated from the IC50 value using the equation Ki=IC50/1+[L]/Kd) where [L]=25 nmol/L and Kd=17 nmol/L
# [2] = target: T1, RORγ ligand binding domain; assay: RORγ co-factor recruitment assay (FRET); type: biochemical; set-up: made in house; host or cells: E. coli BL21DE3 Star; details: inhibition of recruitment of SRC-1 peptide (NCOA1_677-700) to hRORγ LBD, HTRF read-out
# From the text: RORγ Co-Factor Recruitment Assay A high throughput coactivator binding assay for the identification of inverse agonists of the recruitment of peptide SRC-1 (NCOA1_677-_700) to the RORγ ligand binding domain was established. The ligand binding domain (LBD) of human RORγ was expressed in E. coli (BL21DE3 Star) as a fusion protein: N-6×HN-MBP-Avi-TCS-hRORγLBD(P260-K518) subcloned into pET24a(+). The LBD (P260-K518) is underlined in the protein sequence: The assay was run in black 384 well plates (Greiner cat no: 784900). Various concentrations of test ligands in 0.1 microlitres DMSO were dispensed to assay plates using an Echo acoustic dispenser. Two pre-mixes were prepared and incubated for 1 h at room temp in the dark. Pre-mix 1 comprised 100 nM Protein (Biotinylated HN-Avi-MBP-TCS-hRORγ (258-518)) and 60 nM Streptavidin APC in assay buffer, 50 mM MOPS pH7.4, 50 mM KF, 0.003% (w/v) CHAPS, 10 mM DTT and 0.01% (w/v) BSA and pre-mix 2 comprised 160 nM biotinylated SRC-1 peptide (NCOA1-677-700) and 20 nM Europium-W8044 labelled Streptavidin in assay buffer. Five microlitres of pre-mix 2 was dispensed to assay plates containing 0.1 microlitres of test compound and was incubated for 15 min prior to adding five microlitres of pre-mix 1. Plates were incubated at rt for 1 hour in the dark, prior to reading in a Pherastar multi-mode plate reader using HTRF filter set (ex 320, em 612 and 665). The FRET signal at 665 nm was divided by the signal at 612 nm and multiplied by 10,000 to generate a signal ratio value for each well. The raw data was transformed to % effect using the equation: Compound % effect=100*[(X−min)/(max−min)], where X represents the normalized value for the compound based on the Min (vehicle) and Max (reference compound) inhibition control. The concentration of test ligand that inhibited the activity by 50% (i.e., the IC50) was calculated by plotting the % effect versus test ligand concentration and fitting the data using the Genedata Screener Smart fit algorithm.
Compound,IC50 [1],IC50 [2]
"CS(=O)(=O)c1ccc2c(c1)CN(C=O)C2C(=O)Nc1ccc(C(C#N)(C(F)(F)F)C(F)(F)F)cc1 (centres unmarked) [Example 6, N-[4-(2-Cyano-1,1,1,3,3,3-hexafluoropropan-2-yl)phenyl]-2-formyl-5-(methylsulfonyl)-2,3-dihydro-1H-isoindole-1-carboxamide]",10 nM,39.8 nM
"COC(=O)N1Cc2cc(S(C)(=O)=O)ccc2C1C(=O)Nc1ccc(C(C#N)(C(F)(F)F)C(F)(F)F)cc1 (centres unmarked) [Example 7, Methyl 1-{[4-(2-cyano-1,1,1,3,3,3-hexafluoropropan-2-yl)phenyl]carbamoyl}-5-(methylsulfonyl)-1,3-dihydro-2H-isoindole-2-carboxylate]",12.6 nM,50.1 nM
"COCC(=O)N1Cc2cc(S(C)(=O)=O)ccc2C1C(=O)Nc1ccc(C(C#N)(C(F)(F)F)C(F)(F)F)cc1 (centres unmarked) [Example 8, N-[4-(2-Cyano-1,1,1,3,3,3-hexafluoropropan-2-yl)phenyl]-2-(methoxyacetyl)-5-(methylsulfonyl)-2,3-dihydro-1H-isoindole-1-carboxamide]",12.6 nM,50.1 nM
"CS(=O)(=O)c1ccc2c(c1)CN(C(=O)CCC(=O)O)C2C(=O)Nc1ccc(C(C#N)(C(F)(F)F)C(F)(F)F)cc1 (centres unmarked) [Example 9, 4-[1-{[4-(2-Cyano-1,1,1,3,3,3-hexafluoropropan-2-yl)phenyl]carbamoyl}-5-(methylsulfonyl)-1,3-dihydro-2H-isoindol-2-yl]-4-oxobutanoic acid]",10 nM,100 nM
"CS(=O)(=O)c1ccc2c(c1)CN(C(=O)CN)C2C(=O)Nc1ccc(C(C#N)(C(F)(F)F)C(F)(F)F)cc1 (centres unmarked) [Example 10, N-[4-(2-Cyano-1,1,1,3,3,3-hexafluoropropan-2-yl)phenyl]-2-glycyl-5-(methylsulfonyl)-2,3-dihydro-1H-isoindole-1-carboxamide]",25.1 nM,79.4 nM
"CS(=O)(=O)c1ccc2c(c1)CN(C(=O)CCN)C2C(=O)Nc1ccc(C(C#N)(C(F)(F)F)C(F)(F)F)cc1 (centres unmarked) [Example 11, 2-(3-Aminopropanoyl)-N-[4-[1-cyano-2,2,2-trifluoro-1-(trifluoromethyl)ethyl]phenyl]-5-methylsulfonyl-isoindoline-1-carboxamide]",25.1 nM,158 nM
"CCCNC(c1ccc(NC(=O)C2c3ccc(S(C)(=O)=O)cc3CN2C(C)=O)cc1)(C(F)(F)F)C(F)(F)F (centres unmarked) [Example 16, 2-Acetyl-N-{4-[1,1,1,3,3,3-hexafluoro-2-(propylamino)propan-2-yl]phenyl}-5-(methylsulfonyl)-2,3-dihydro-1H-isoindole-1-carboxamide]",6.31 nM,39.8 nM
"CNC(c1ccc(NC(=O)C2c3ccc(S(C)(=O)=O)cc3CN2C(C)=O)cc1)(C(F)(F)F)C(F)(F)F (centres unmarked) [Example 24, 2-Acetyl-N-{4-[1,1,1,3,3,3-hexafluoro-2-(methylamino)propan-2-yl]phenyl}-5-(methylsulfonyl)-2,3-dihydro-1H-isoindole-1-carboxamide]",31.6 nM,50.1 nM
"CC(=O)N1Cc2cc(S(C)(=O)=O)ccc2C1C(=O)Nc1ccc(C(N(C)C)(C(F)(F)F)C(F)(F)F)cc1 (centres unmarked) [Example 25, 2-Acetyl-N-{4-[2-(dimethylamino)-1,1,1,3,3,3-hexafluoropropan-2-yl]phenyl}-5-(methylsulfonyl)-2,3-dihydro-1H-isoindole-1-carboxamide]",6.31 nM,39.8 nM
"CC(=O)N1Cc2cc(S(C)(=O)=O)ccc2C1C(=O)Nc1ccc(C(NCCS(C)(=O)=O)(C(F)(F)F)C(F)(F)F)cc1 (centres unmarked) [Example 26, 2-Acetyl-N-[4-(1,1,1,3,3,3-hexafluoro-2-{[2-(methylsulfonyl)ethyl]amino}propan-2-yl)phenyl]-5-(methylsulfonyl)-2,3-dihydro-1H-isoindole-1-carboxamide]",631 nM,1000 nM
"CC(=O)N1Cc2cc(S(C)(=O)=O)ccc2C1C(=O)Nc1ccc(C(NCCOC(C)C)(C(F)(F)F)C(F)(F)F)cc1 (centres unmarked) [Example 27, 2-Acetyl-N-[4-(1,1,1,3,3,3-hexafluoro-2-{[2-(propan-2-yloxy)ethyl]amino}propan-2-yl)phenyl]-5-(methylsulfonyl)-2,3-dihydro-1H-isoindole-1-carboxamide]",7.94 nM,> 31600 nM
"COC(c1ccc(NC(=O)C2c3ccc(S(C)(=O)=O)cc3CN2C(C)=O)cc1)(C(F)(F)F)C(F)(F)F (centres unmarked) [Example 28, 2-Acetyl-N-[4-(1,1,1,3,3,3-hexafluoro-2-methoxypropan-2-yl)phenyl]-5-(methylsulfonyl)-2,3-dihydro-1H-isoindole-1-carboxamide]",7.94 nM,39.8 nM
"CC(=O)N1Cc2cc(S(C)(=O)=O)ccc2C1C(=O)Nc1ccc(C(n2ccnn2)(C(F)(F)F)C(F)(F)F)cc1 (centres unmarked) [Example 29, 2-Acetyl-N-{4-[1,1,1,3,3,3-hexafluoro-2-(1H-1,2,3-triazol-1-yl)propan-2-yl]phenyl}-5-(methylsulfonyl)-2,3-dihydro-1H-isoindole-1-carboxamide]",39.8 nM,100 nM
"CC(=O)N1Cc2cc(S(C)(=O)=O)ccc2C1C(=O)Nc1ccc(C(CC(=O)N2CC(C)(F)C2)(C(F)(F)F)C(F)(F)F)cc1 (centres unmarked) [Example 39, 2-Acetyl-5-(methylsulfonyl)-N-{4-[1,1,1-trifluoro-4-(3-fluoro-3-methylazetidin-1-yl)-4-oxo-2-(trifluoromethyl)butan-2-yl]phenyl}-2,3-dihydro-1H-isoindole-1-carboxamide]",398 nM,> 31600 nM
"CC(=O)N1Cc2cc(S(C)(=O)=O)ccc2C1C(=O)Nc1ccc(C(CC(=O)OC(C)C)(C(F)(F)F)C(F)(F)F)cc1 (centres unmarked) [Example 40, Propan-2-yl 3-[4-({[2-acetyl-5-(methylsulfonyl)-2,3-dihydro-1H-isoindol-1-yl]carbonyl}amino)phenyl]-4,4,4-trifluoro-3-(trifluoromethyl)butanoate]",12.6 nM,> 31600 nM
"CC(=O)N1Cc2cc(S(C)(=O)=O)ccc2C1C(=O)Nc1ccc(C(CC(=O)OC(C)(C)C)(C(F)(F)F)C(F)(F)F)cc1 (centres unmarked) [Example 44, tert-Butyl 3-[4-({[2-acetyl-5-(methylsulfonyl)-2,3-dihydro-1H-isoindol-1-yl]carbonyl}amino)phenyl]-4,4,4-trifluoro-3-(trifluoromethyl)butanoate]",15.8 nM,> 31600 nM
